From ChEMBL document CHEMBL1201862, “PubChem BioAssay data set” (2004)
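Exposure lasted 48 hours, with cells grown in 96-well plates and compounds tested at five concentrations. GI50 marks 50% less growth.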 Activity calls are given as the source filed them. Rule as the data show it: active = GI50 up to about 1.1 µM and inactive = higher.

What was measured:
Test in all cases: growth of human tumour cells (NCI), 48 h
[1] = test system: A549
[2] = test system: HOP-92
[3] = test system: HT-29
[4] = test system: IGROV-1
[5] = test system: KM12
[6] = test system: M14
[7] = test system: MDA-MB-231
[8] = test system: MDA-MB-435
[9] = test system: MOLT-4
[10] = test system: NCI-H23
[11] = test system: NCI/ADR-RES
[12] = test system: OVCAR-8
[13] = test system: SF-539
[14] = test system: SK-MEL-28
[15] = test system: SN12C
[16] = test system: SNB-19
[17] = test system: SNB-75
[18] = test system: SR
[19] = test system: SW-620
[20] = test system: TK-10

Structure (SMILES) | GI50 [1] | GI50 [2] | GI50 [3] | GI50 [4] | GI50 [5] | GI50 [6] | GI50 [7] | GI50 [8] | GI50 [9] | GI50 [10] | GI50 [11] | GI50 [12] | GI50 [13] | GI50 [14] | GI50 [15] | GI50 [16] | GI50 [17] | GI50 [18] | GI50 [19] | GI50 [20]
O=C(Nc1ccccc1C(=O)NCc1ccccc1)/C(=C/c1ccccc1O)NC(=O)c1ccccc1 | > 100 µM (inactive) | 75.3 µM (inactive) | > 100 µM (inactive) | 73.1 µM (inactive) | 4.67 µM (inactive) | > 100 µM (inactive) | 27.1 µM (inactive) | 50.7 µM (inactive) | > 100 µM (inactive) | > 100 µM (inactive) | 88.5 µM (inactive) | 95.1 µM (inactive) | > 100 µM (inactive) | > 100 µM (inactive) | > 100 µM (inactive) | > 100 µM (inactive) | 19.1 µM (inactive) | > 100 µM (inactive) | > 100 µM (inactive) | 74.6 µM (inactive)
COc1cc2oc(-c3ccc(O)cc3)c(OC3OC(C)C(O)C(O)C3O)c(=O)c2c(O)c1OC (stereo not given) | 79.6 µM (inactive) | > 100 µM (inactive) | > 100 µM (inactive) | > 100 µM (inactive) | > 100 µM (inactive) | > 100 µM (inactive) | > 100 µM (inactive) | > 100 µM (inactive) | 33 µM (inactive) | 36.5 µM (inactive) | 75.5 µM (inactive) | 91 µM (inactive) | > 100 µM (inactive) | > 100 µM (inactive) | > 100 µM (inactive) | > 100 µM (inactive) | > 100 µM (inactive) | 27 µM (inactive) | 92.7 µM (inactive) | > 100 µM (inactive)
Cc1ccccc1N1C(N)=C(C#N)C(C#N)(C#N)C1c1ccccc1 (stereo not given) | 26.1 µM (inactive) | 13.8 µM (inactive) | 18.4 µM (inactive) | 17.9 µM (inactive) | 16.8 µM (inactive) | 23.4 µM (inactive) | 13.3 µM (inactive) | 17.7 µM (inactive) | 15.6 µM (inactive) | 19.4 µM (inactive) | 20.7 µM (inactive) | 20.9 µM (inactive) | 21.2 µM (inactive) | 17.6 µM (inactive) | 23.3 µM (inactive) | 20 µM (inactive) | 26 µM (inactive) | 23.9 µM (inactive) | 16.3 µM (inactive) | 14.6 µM (inactive)
NS(=O)(=O)c1ccc(-c2ccc([As](=O)(O)O)cc2)cc1 | > 100 µM (inactive) | > 100 µM (inactive) | > 100 µM (inactive) | > 100 µM (inactive) | > 100 µM (inactive) | > 100 µM (inactive) | > 100 µM (inactive) | > 100 µM (inactive) | > 100 µM (inactive) | > 100 µM (inactive) | > 100 µM (inactive) | > 100 µM (inactive) | > 100 µM (inactive) | > 100 µM (inactive) | > 100 µM (inactive) | > 100 µM (inactive) | 11.6 µM (inactive) | > 100 µM (inactive) | > 100 µM (inactive) | > 100 µM (inactive)
Cc1cn(CCCCCOC(=O)NC(CCCNC(=N)N)C(=O)O)c(=O)[nH]c1=O (stereo not given) | 49.2 µM (inactive) | > 100 µM (inactive) | 24.2 µM (inactive) | 38.1 µM (inactive) | 19 µM (inactive) | 55.6 µM (inactive) | 69.8 µM (inactive) | 6.32 µM (inactive) | 35.6 µM (inactive) | 40.2 µM (inactive) | 23.1 µM (inactive) | 39.4 µM (inactive) | 45.7 µM (inactive) | 76.4 µM (inactive) | 56.8 µM (inactive) | 40.8 µM (inactive) | 31.6 µM (inactive) | 2.57 µM (inactive) | 38.7 µM (inactive) | > 100 µM (inactive)
CC1=C2C(=O)c3ccccc3C(=O)[C@H]2C[C@@H](N2CCCC2=O)O1 | 43.1 µM (inactive) | 21.9 µM (inactive) | 41.6 µM (inactive) | 80.9 µM (inactive) | 77.6 µM (inactive) | 14.7 µM (inactive) | 39.6 µM (inactive) | 18.5 µM (inactive) | 32.1 µM (inactive) | 21.9 µM (inactive) | 28.4 µM (inactive) | 50.9 µM (inactive) | 25.5 µM (inactive) | 54.7 µM (inactive) | 53.2 µM (inactive) | > 100 µM (inactive) | 15.3 µM (inactive) | 32.2 µM (inactive) | 23.8 µM (inactive) | 70.3 µM (inactive)
CC(=O)OCC(=O)O[C@@H]1[C@H]2[C@@H](OC(=O)c3ccccc3)[C@@H](C)C[C@]2(O)[C@H](OC(C)=O)[C@@]2(C)C[C@]1(OC(C)=O)C[C@H]1C(=O)C(C)(C)[C@@H](OC(C)=O)[C@@H]12 | 3.66 µM (inactive) | > 16.3 µM (inactive) | 9.42 µM (inactive) | > 25 µM (inactive) | > 25 µM (inactive) | > 12.1 µM (inactive) | > 25 µM (inactive) | 10.8 µM (inactive) | > 5.14 µM (inactive) | > 25 µM (inactive) | > 25 µM (inactive) | > 25 µM (inactive) | > 25 µM (inactive) | > 25 µM (inactive) | > 25 µM (inactive) | > 25 µM (inactive) | 7.71 µM (inactive) | > 25 µM (inactive) | 21.2 µM (inactive) | > 25 µM (inactive)
COC(=O)c1c2c(cc3c1CC1(C3)Cc3ccc4c(c3C1=O)CCC4)CCC2 (stereo not given) | 4.88 µM (inactive) | 1.84 µM (inactive) | 2.58 µM (inactive) | 4.99 µM (inactive) | 2.64 µM (inactive) | 3.03 µM (inactive) | 2.01 µM (inactive) | 0.6 µM (active) | 4.41 µM (inactive) | 3.74 µM (inactive) | 1.92 µM (inactive) | 4.61 µM (inactive) | 2.38 µM (inactive) | 6.67 µM (inactive) | 4.2 µM (inactive) | 4.12 µM (inactive) | 4.33 µM (inactive) | 1.78 µM (inactive) | 4.07 µM (inactive) | 8.49 µM (inactive)
C=CCn1c(-c2ccc(Cl)cc2Cl)cs/c1=N\c1c(C)n(C)n(-c2ccccc2)c1=O | 9.44 µM (inactive) | 17.9 µM (inactive) | 10.1 µM (inactive) | 17 µM (inactive) | 13.5 µM (inactive) | 11.3 µM (inactive) | 13.8 µM (inactive) | 10.9 µM (inactive) | 4.32 µM (inactive) | 9.82 µM (inactive) | 6.71 µM (inactive) | 5.81 µM (inactive) | 14.8 µM (inactive) | 13 µM (inactive) | 13.4 µM (inactive) | 11.1 µM (inactive) | 8.47 µM (inactive) | 5.36 µM (inactive) | 15.8 µM (inactive) | 12.3 µM (inactive)
CCOc1ccc(/N=N/c2ccc3cc(/C(C)=N/NC(=O)/C(C#N)=C\c4ccc(N(CCC#N)CCC#N)cc4)c(=O)oc3c2)cc1 | > 10 µM (inactive) | > 10 µM (inactive) | > 10 µM (inactive) | > 10 µM (inactive) | > 10 µM (inactive) | > 10 µM (inactive) | > 10 µM (inactive) | > 10 µM (inactive) | > 10 µM (inactive) | > 10 µM (inactive) | > 10 µM (inactive) | > 10 µM (inactive) | > 10 µM (inactive) | > 10 µM (inactive) | > 10 µM (inactive) | > 10 µM (inactive) | 1.86 µM (inactive) | > 10 µM (inactive) | > 10 µM (inactive) | > 10 µM (inactive)
